Laboratory results from patent US9453024B2, “Polymorphs of darunavir” (MAPI PHARMA LTD., priority 2009, dated 2016).
In brackets after ≈: the same amount, converted by molar mass. Where two headings read alike, the source gives them in different places.

What was measured:
[1] = Particle size distribution and surface area; type: physicochemical
Protocol: Micronized darunavir dimethylsulfoxide solvate was prepared from the non-micronized form by milling using a jet mill (Super fine vortex Mill™).

[2] = Aqueous solubility in buffers, 24 h shaking at 25° C., HPLC; type: physicochemical; details: 24 hours at 25° C.; for solubility at 24 h: 25 °C, thermodynamic from solid
Protocol: The aqueous solubility of the tetrahydrofuran solvate of darunavir of the present invention was measured. Specifically, about 10 mg of the compound was accurately weighed into a 4 ml clear glass vial followed by the addition of 2.5 ml buffer (at different pH) to the vial. The vial was then mounted on a Thermomixer and was kept shaking for 24 hours at 25° C. The solution was filtered through 0.45 μm PTFE filter. The pH value and concentration of the filtrate were checked by pH meter and HPLC (Agilent 1200; Column: Zorbax SB C18, 4.6 mm×150 mm ID×5 μm; Profile of mobile phase: t=0 water 70, ACN 30; t=15,20 water 0, ACN 100; Column temperature 30° C.; Mobile rate 1.0 mL/min; Detector wavelength 265 nm; The typical retention time of Darunavir is 7.7 min), respectively.
(§1) The aqueous solubility of the dimethylsulfoxide solvate of darunavir of the present invention was measured. Specifically, about 10 mg of the compound was accurately weighed into a 4 ml clear glass vial followed by the addition of 2.5 ml buffer (at different pH) to the vial. The vial was then mounted on a Thermomixer and kept shaking for 24 hours at 25° C. The solution was filtered through 0.45 μm PTFE filter. The pH value and concentration of the filtrate were checked by pH meter and HPLC, respectively.
as §1, with “Specifically,” for “The aqueous solubility of the dimethylsulfoxide solvate of darunavir of the present invention was measured. Specifically,”, “respectively. The results are summarized in Table 11 and in FIG. 8 panel C.” for “respectively.”

[3] = Hygroscopicity (DVS) from 0% to 90%; type: physicochemical; details: for weight gain from 0% to 90% (DVS) / hygroscopicity (in words): 25° C.; for hygroscopicity (in words): DVS 0% to 90%
Protocol: About 10 mg of the tetrahydrofuran solvate form of the present invention were used to test the hygroscopicity (DVS) from 0% to 90% according to the details on Table 2.
About 10 mg of the dimethylsulfoxide solvate form of the present invention were used to test the hygroscopicity (DVS) from 0% to 90% according to the details on Table 2 hereinabove.
The hygroscopicities of the Darunavir forms of the present invention were compared to the hygroscopicity of Darunavir ethanolate API.

Bulk density = type: physicochemical
[4] = water at 20° C.; cited from earlier work
[5] = pH 1.2 buffer, footnote *degraded
[6] = listed as tetrahydrofuran solvate form
[7] = listed as dimethylsulfoxide solvate form

With `CC(C)CN(C[C@@H](O)[C@H](Cc1ccccc1)NC(=O)O[C@H]1CO[C@H]2OCC[C@H]21)S(=O)(=O)c1ccc(N)cc1` [[(1S,2R)-3-[[(4-aminophenyl)sulfonyl](2-methylpropyl)amino]-2-hydroxy-1-(phenylmethyl)propyl]-carbamic acid (3R,3aS,6aR)-hexahydrofuro[2,3-b]furan-3-yl ester] as the compound, how does the D10 ([1]; listed as Micronized) read?
The D10 was 1.5 μm.

And the D50 ([1]; listed as Micronized)?
Its D50 is 3.7 μm.

And the D90 ([1]; listed as Micronized)?
The D90 was 7.2 μm.

What about the Specific surface area ([1]; listed as Micronized) of the same compound?
Its Specific surface area is 2.6 m^2/g.

What about the Surface weighted mean ([1]; listed as Micronized) of the same compound?
The Surface weighted mean was 2.3 μm.

What about the Vol. weighted mean ([1]; listed as Micronized) of the same compound?
Its Vol. weighted mean is 4.1 μm.

And the Dissolution (15 min, 600 mg/vessel, 75 rpm, 900 mL 2.0% Tween-20 in 0.05M sodium phosphate buffer pH 3.0, 37° C., listed as Micronized)?
Its Dissolution is 89.30%.

And the Dissolution (30 min, same medium, listed as Micronized)?
The Dissolution was 94.72%.

And the Dissolution (45 min, same medium, listed as Micronized)?
The Dissolution was 95.98%.

What about the Dissolution (60 min, same medium, listed as Micronized) of the same compound?
The Dissolution was 94.95%.

Which Solubility [2, 5] does the source give for `CC(C)CN(C[C@@H](O)[C@H](Cc1ccccc1)NC(=O)O[C@H]1CO[C@H]2OCC[C@H]21)S(=O)(=O)c1ccc(N)cc1` [amorphous darunavir, [(1S,2R)-3-[[(4-aminophenyl)sulfonyl](2-methylpropyl)amino]-2-hydroxy-1-(phenylmethyl)propyl]-carbamic acid (3R,3aS,6aR)-hexahydrofuro[2,3-b]furan-3-yl ester] here?
The Solubility was 1.73* mg/ml.

What about the Solubility ([2]; pH 4.5 buffer) of the same compound?
Its Solubility is 0.27 mg/mL (≈ 493 µM).

And the Solubility ([2]; pH 6.8 buffer)?
Its Solubility is 0.24 mg/mL (≈ 438 µM).

And the Solubility ([2]; pH 7.4 buffer)?
Its Solubility is 0.23 mg/mL (≈ 420 µM).

What about the Solubility ([2]; water) of the same compound?
Its Solubility is 0.27 mg/mL (≈ 493 µM).

What about the “weight gain from 0% to 90% (DVS)” value [3] of the same compound?
Its value is 2.617%.

And the “hygroscopicity (in words)” value [3]?
Its value is “hygroscopic”.

And the bulk density (Bulk density)?
Its bulk density is 0.445 ± 0.012 g/mL.

Which “weight gain from 0% to 90% (DVS)” value [3] does the source give for `CC(C)CN(C[C@@H](O)[C@H](Cc1ccccc1)NC(=O)O[C@H]1CO[C@H]2OCC[C@H]21)S(=O)(=O)c1ccc(N)cc1` [darunavir ethanolate, [(1S,2R)-3-[[(4-aminophenyl)sulfonyl](2-methylpropyl)amino]-2-hydroxy-1-(phenylmethyl)propyl]-carbamic acid (3R,3aS,6aR)-hexahydrofuro[2,3-b]furan-3-yl ester, reference compound] here?
Its value is 2.180%.

And the “hygroscopicity (in words)” value [3]?
Its value is “hygroscopic”.

What about the “loss of solvate during the desorption measurement” value ([3]; DVS desorption) of the same compound?
The value was “lost the solvate ethanol molecules”.

What about the bulk density (Bulk density; known ethanolate form, comparator) of the same compound?
Its bulk density is 0.374 ± 0.009 g/mL.

And the solubility in water [4]?
The solubility in water was “approximately 0.15 mg/mL”.

With `CC(C)CN(C[C@@H](O)[C@H](Cc1ccccc1)NC(=O)O[C@H]1CO[C@H]2OCC[C@H]21)S(=O)(=O)c1ccc(N)cc1` [darunavir tetrahydrofuran solvate, [(1S,2R)-3-[[(4-aminophenyl)sulfonyl](2-methylpropyl)amino]-2-hydroxy-1-(phenylmethyl)propyl]-carbamic acid (3R,3aS,6aR)-hexahydrofuro[2,3-b]furan-3-yl ester] as the compound, how does the solubility at 24 h ([2]; pH 1.2 buffer, pH 1.2, simulated gastric fluid, footnote *degraded) read?
Its solubility at 24 h is 1470 µg/mL.

And the solubility at 24 h ([2]; pH 4.5 buffer, pH 4.5, aqueous buffer)?
Its solubility at 24 h is 270 µg/mL.

And the solubility at 24 h ([2]; pH 6.8 buffer, pH 6.8, aqueous buffer)?
Its solubility at 24 h is 240 µg/mL.

What about the solubility at 24 h ([2]; pH 7.4 buffer, pH 7.4, aqueous buffer) of the same compound?
Its solubility at 24 h is 230 µg/mL.

What about the solubility at 24 h ([2]; water) of the same compound?
The solubility at 24 h was 270 µg/mL.

And the “weight gain from 0% to 90% (DVS)” value [3]?
Its value is 1.366%.

And the “weight gain from 0% to 90% (DVS)” value [3, 6]?
The value was 1.366%.

What about the “hygroscopicity (in words)” value [3] of the same compound?
Its value is “only slightly hygroscopic”.

And the “hygroscopicity (in words)” value [3, 6]?
Its value is “slightly hygroscopic”.

What about the bulk density (Bulk density) of the same compound?
Its bulk density is 0.431 ± 0.007 g/mL.

Which results are given for `CC(C)CN(C[C@@H](O)[C@H](Cc1ccccc1)NC(=O)O[C@H]1CO[C@H]2OCC[C@H]21)S(=O)(=O)c1ccc(N)cc1` [darunavir dimethylsulfoxide solvate, [(1S,2R)-3-[[(4-aminophenyl)sulfonyl](2-methylpropyl)amino]-2-hydroxy-1-(phenylmethyl)propyl]-carbamic acid (3R,3aS,6aR)-hexahydrofuro[2,3-b]furan-3-yl ester]?
Solubility [2, 5]: 1.36* mg/ml; Solubility ([2]; pH 4.5 buffer): 0.22 mg/mL; Solubility ([2]; pH 6.8 buffer): 0.21 mg/mL; Solubility ([2]; pH 7.4 buffer): 0.20 mg/mL; Solubility ([2]; water): 0.23 mg/mL; weight gain from 0% to 90% (DVS) [3]: 0.9431%; weight gain from 0% to 90% (DVS) [3, 7]: 0.9431%; hygroscopicity (in words) [3]: only slightly hygroscopic; hygroscopicity (in words) [3, 7]: only slightly hygroscopic; bulk density (Bulk density): 0.472 ± 0.008 g/mL; denser when compared to the bulk density of the known ethanolate form (Bulk density): approximately 26%; D10 ([1]; listed as Non-micronized): 3.9 μm; D50 ([1]; listed as Non-micronized): 29.2 μm; D90 ([1]; listed as Non-micronized): 99.7 μm; Specific surface area ([1]; listed as Non-micronized): 0.9 m^2/g; Surface weighted mean ([1]; listed as Non-micronized): 6.5 μm; Vol. weighted mean ([1]; listed as Non-micronized): 42.0 μm; Dissolution (15 min, 600 mg/vessel, 75 rpm, 900 mL 2.0% Tween-20 in 0.05M sodium phosphate buffer pH 3.0, 37° C., listed as Non-micronized): 56.83%; Dissolution (30 min, same medium, listed as Non-micronized): 81.61%; Dissolution (45 min, same medium, listed as Non-micronized): 88.06%; Dissolution (60 min, same medium, listed as Non-micronized): 90.45%
